Legend:
[1] = target: T1, AMPA receptor (human GluR1 flip/stargazin expressed in CHO-K1 cells) (Homo sapiens, UniProt P42261); assay: AMPA receptor function enhancing activity using calcium influx as index; format: cell-based; settings: 100% = 3 mM glutamic acid + 300 μM cyclothiazide, 0% = 3 mM glutamic acid only
T1 construct: expressed in transfected cells; host or cells: CHO-K1
Procedure, shortened: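 CHO-K1 clone stably co-expressing human GluR1 flip and stargazin, loaded with Calcium 4 dye plus probenecid. Compound at 30 μM was added with glutamate (3 mM final) and fluorescence change followed over 3 min. Activity is expressed as % of the 3 mM glutamate plus 300 μM cyclothiazide response, with glutamate alone as 0%.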

[2] = test compound 30 μM with 3 mM glutamic acid, change in fluorescence level in 3 min
[3] = test compound 30 μM with glutamic acid final 3 mM, change in fluorescence in 3 min

T1 sequence (P42261 19-906 isoform P42261-2 limits assumed): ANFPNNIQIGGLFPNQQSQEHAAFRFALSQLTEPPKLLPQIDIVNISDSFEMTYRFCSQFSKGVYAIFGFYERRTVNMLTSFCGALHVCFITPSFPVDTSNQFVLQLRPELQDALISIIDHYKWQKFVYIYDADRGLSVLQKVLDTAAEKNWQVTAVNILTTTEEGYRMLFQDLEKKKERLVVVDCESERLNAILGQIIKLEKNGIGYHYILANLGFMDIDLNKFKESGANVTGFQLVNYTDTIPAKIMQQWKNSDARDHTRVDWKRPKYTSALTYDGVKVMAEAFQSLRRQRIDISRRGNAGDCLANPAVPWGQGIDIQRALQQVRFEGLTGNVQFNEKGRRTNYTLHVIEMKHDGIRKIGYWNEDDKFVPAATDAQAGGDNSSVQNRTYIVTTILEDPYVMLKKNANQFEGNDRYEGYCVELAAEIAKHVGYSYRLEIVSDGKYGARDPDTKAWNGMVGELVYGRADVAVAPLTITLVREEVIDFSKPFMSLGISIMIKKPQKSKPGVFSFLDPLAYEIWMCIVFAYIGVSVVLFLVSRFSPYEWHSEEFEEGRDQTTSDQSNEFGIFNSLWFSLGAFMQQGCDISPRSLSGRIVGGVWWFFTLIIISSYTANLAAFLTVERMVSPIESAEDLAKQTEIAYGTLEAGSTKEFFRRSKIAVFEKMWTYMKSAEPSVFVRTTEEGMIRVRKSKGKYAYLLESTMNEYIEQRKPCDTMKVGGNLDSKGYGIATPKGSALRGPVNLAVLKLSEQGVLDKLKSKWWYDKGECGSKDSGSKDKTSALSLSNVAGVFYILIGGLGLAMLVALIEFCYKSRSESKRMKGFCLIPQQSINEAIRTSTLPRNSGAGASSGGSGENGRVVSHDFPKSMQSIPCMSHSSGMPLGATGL
T1 sequence (Q9Y698 whole entry partner): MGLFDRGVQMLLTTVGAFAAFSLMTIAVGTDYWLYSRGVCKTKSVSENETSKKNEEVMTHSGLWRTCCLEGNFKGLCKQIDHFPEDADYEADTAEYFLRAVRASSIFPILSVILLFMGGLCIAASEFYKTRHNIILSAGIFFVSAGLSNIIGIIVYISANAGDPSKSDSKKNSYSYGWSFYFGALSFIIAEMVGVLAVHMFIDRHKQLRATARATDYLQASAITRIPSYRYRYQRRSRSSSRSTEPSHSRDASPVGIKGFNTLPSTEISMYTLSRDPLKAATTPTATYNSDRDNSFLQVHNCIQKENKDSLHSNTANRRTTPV

| melting point | activity (%) [1, 2] | activity (%) [1, 3] | SMILES |
| --- | --- | --- | --- |
| 92 to 92.5 °C | 78% |  | CC1=CN2CCS(=O)(=O)N=C2C(c2ccc(Oc3ccccc3)cc2)=N1 [Example 207, 7-methyl-9-(4-phenoxyphenyl)-3,4-dihydropyrazino[2,1-c][1,2,4]thiadiazine 2,2-dioxide] |
| 91.9 to 92 °C | 84% |  | O=S1(=O)CCN2C=C(F)C=C(c3ccc(Oc4ccccc4)cc3)C2=N1 [Example 206, 7-fluoro-9-(4-phenoxyphenyl)-3,4-dihydropyrido[2,1-c][1,2,4]thiadiazine 2,2-dioxide] |
| 170 to 171 °C | 71% |  | Cc1ccc(Oc2ccc([C@@H]3CCCN4CCS(=O)(=O)N=C34)cc2)cc1C [Example 216, (9S)-9-[4-(3,4-dimethylphenoxy)phenyl]-3,4,6,7,8,9-hexahydropyrido[2,1-c][1,2,4]thiadiazine 2,2-dioxide] |
| 139 to 140 °C | 83% |  | COc1cccc(Oc2ccc([C@@H]3CCCN4CCS(=O)(=O)N=C34)cc2)c1 [Example 219, (9S)-9-[4-(3-methoxyphenoxy)phenyl]-3,4,6,7,8,9-hexahydropyrido[2,1-c][1,2,4]thiadiazine 2,2-dioxide] |

Second part, the compound before the results:

| SMILES | melting point | activity (%) [1, 2] | activity (%) [1, 3] |
| --- | --- | --- | --- |
| O=S1(=O)CCN2CCCC(c3ccc(Oc4cccc(Cl)c4)cc3)C2=N1 (centres unmarked) [Example 201, 9-[4-(3-chlorophenoxy)phenyl]-3,4,6,7,8,9-hexahydropyrido[2,1-c][1,2,4]thiadiazine 2,2-dioxide] | 165 to 167 °C | 74% |  |
| O=S1(=O)CCN2C=CC=C(c3ccc(Oc4ccccc4)cc3)C2=N1 [Example 31, 9-(4-phenoxyphenyl)-3,4-dihydropyrido[2,1-c][1,2,4]thiadiazine 2,2-dioxide] | 252 to 253 °C |  | 79% |
| COc1ccc2ccc(OC3=CC=CN4CCS(=O)(=O)N=C34)cc2c1 [Example 59, 9-[(7-methoxynaphthalen-2-yl)oxy]-3,4-dihydropyrido[2,1-c][1,2,4]thiadiazine 2,2-dioxide] | 235 to 237 °C |  | 72% |
| O=S1(=O)CCN2CCCC(c3ccc(C(F)(F)F)cc3)C2=N1 (centres unmarked) [Example 175, 9-[4-(trifluoromethyl)phenyl]-3,4,6,7,8,9-hexahydropyrido[2,1-c][1,2,4]thiadiazine 2,2-dioxide] | 226 to 227 °C | 53% |  |
| O=S1(=O)CCN2C=CC(Cl)=C(c3ccc(Oc4ccccc4)cc3)C2=N1 [Example 205, 8-chloro-9-(4-phenoxyphenyl)-3,4-dihydropyrido[2,1-c][1,2,4]thiadiazine 2,2-dioxide] | 283 to 284 °C | 67% |  |
| CC(F)(F)c1cccc(Oc2ccc(C3CCCN4CCS(=O)(=O)N=C34)cc2)c1 (centres unmarked) [Example 157, 9-{4-[3-(1,1-difluoroethyl)phenoxy]phenyl}-3,4,6,7,8,9-hexahydropyrido[2,1-c][1,2,4]thiadiazine 2,2-dioxide] | 117 to 118 °C | 89% |  |
| CC(C)c1ccc(C2=CC=CN3CCS(=O)(=O)N=C23)cc1 [Example 23, 9-[4-(1-methylethyl)phenyl]-3,4-dihydropyrido[2,1-c][1,2,4]thiadiazine 2,2-dioxide] | 239 to 241 °C |  | 104% |
| CC(C)c1ccc(OCC2=CC=CN3CCS(=O)(=O)N=C23)cc1 [Example 61, 9-{[4-(1-methylethyl)phenoxy]methyl}-3,4-dihydropyrido[2,1-c][1,2,4]thiadiazine 2,2-dioxide] | 212 to 214 °C |  | 75% |
| O=S1(=O)CCN2CCCC(c3ccc(Oc4ccc(C(F)(F)F)cc4)cc3)C2=N1 (centres unmarked) [Example 125, 9-{4-[4-(trifluoromethyl)phenoxy]phenyl}-3,4,6,7,8,9-hexahydropyrido[2,1-c][1,2,4]thiadiazine 2,2-dioxide] | 191 to 193 °C |  | 53% |
